Laboratory results taken from ChEMBL document CHEMBL1152924, “Synthetic staurosporines via a ring closing metathesis strategy as potent JAK3 inhibitors and modulators of allergic responses” (Bioorg Med Chem Lett, 2009).

Assays:
[1] = test system: Jurkat; test: Antiproliferative activity against JAK3 expressing human resting Jurkat cells; format: functional, cell-based
[2] = test system: Jurkat; test: Antiproliferative activity against JAK3 expressing IL2-stimulated human Jurkat cells; format: functional, cell-based
[3] = target: T1, Tyrosine-protein kinase JAK3 (Homo sapiens, UniProt P52333); test: Inhibition of JAK3 expressed in insect Sf21 cells assessed as inhibition of biotinylated substrate phosphorylation
T1 sequence (P52333 whole entry): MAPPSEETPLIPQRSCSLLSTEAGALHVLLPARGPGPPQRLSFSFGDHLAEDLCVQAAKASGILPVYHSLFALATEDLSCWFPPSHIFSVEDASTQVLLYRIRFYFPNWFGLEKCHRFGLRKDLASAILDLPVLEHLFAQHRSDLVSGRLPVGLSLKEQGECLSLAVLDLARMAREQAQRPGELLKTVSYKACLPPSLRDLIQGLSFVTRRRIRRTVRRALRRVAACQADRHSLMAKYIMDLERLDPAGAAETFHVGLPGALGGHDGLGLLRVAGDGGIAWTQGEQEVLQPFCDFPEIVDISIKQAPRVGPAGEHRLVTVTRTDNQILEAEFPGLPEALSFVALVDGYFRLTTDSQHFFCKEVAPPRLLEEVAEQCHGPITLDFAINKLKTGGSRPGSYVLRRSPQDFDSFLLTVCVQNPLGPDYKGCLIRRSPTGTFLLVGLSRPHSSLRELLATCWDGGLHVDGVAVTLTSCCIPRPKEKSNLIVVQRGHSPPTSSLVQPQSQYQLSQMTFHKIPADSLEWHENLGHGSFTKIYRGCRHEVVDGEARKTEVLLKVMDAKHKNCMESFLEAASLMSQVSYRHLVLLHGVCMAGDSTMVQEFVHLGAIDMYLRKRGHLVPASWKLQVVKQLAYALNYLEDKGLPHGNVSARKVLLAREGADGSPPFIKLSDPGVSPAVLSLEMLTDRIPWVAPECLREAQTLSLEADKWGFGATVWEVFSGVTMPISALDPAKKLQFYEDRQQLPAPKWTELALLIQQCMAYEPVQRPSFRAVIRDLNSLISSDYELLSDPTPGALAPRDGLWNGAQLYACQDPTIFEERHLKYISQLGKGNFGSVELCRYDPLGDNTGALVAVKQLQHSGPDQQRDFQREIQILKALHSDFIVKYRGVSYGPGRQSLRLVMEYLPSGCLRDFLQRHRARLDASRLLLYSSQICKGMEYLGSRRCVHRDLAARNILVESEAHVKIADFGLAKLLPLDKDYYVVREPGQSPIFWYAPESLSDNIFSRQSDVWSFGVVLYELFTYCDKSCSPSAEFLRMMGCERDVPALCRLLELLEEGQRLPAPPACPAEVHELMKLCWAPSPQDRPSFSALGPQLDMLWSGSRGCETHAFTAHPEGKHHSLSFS

[4] = target: Tyrosine-protein kinase SYK (Homo sapiens, UniProt P43405); test: Inhibition of SYK-mediated inhibition of biotinylated substrate phosphorylation
[5] = target: T2, Tyrosine-protein kinase ZAP-70 (Homo sapiens, UniProt P43403); test: Inhibition of Zap70-mediated inhibition of biotinylated substrate phosphorylation
T2 sequence (P43403 whole entry): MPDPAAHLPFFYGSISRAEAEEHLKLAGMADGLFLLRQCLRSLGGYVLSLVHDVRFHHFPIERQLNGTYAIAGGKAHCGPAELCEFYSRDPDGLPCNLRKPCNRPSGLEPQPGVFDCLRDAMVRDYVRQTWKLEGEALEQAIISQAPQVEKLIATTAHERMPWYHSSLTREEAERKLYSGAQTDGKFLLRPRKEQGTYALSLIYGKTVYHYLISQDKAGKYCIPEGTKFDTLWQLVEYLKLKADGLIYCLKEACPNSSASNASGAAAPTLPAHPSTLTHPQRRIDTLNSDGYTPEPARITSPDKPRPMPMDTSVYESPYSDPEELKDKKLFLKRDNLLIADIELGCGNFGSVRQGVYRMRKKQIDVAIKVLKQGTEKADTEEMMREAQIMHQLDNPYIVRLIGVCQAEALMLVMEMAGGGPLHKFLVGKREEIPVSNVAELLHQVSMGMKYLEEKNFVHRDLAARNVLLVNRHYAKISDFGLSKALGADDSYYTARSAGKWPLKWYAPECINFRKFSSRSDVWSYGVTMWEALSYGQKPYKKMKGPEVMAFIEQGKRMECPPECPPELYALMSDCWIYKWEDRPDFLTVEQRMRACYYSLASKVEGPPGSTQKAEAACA

[6] = target: MAP kinase-activated protein kinase 2 (Homo sapiens, UniProt P49137); test: Inhibition of MK2-mediated inhibition of biotinylated substrate phosphorylation
[7] = target: Tyrosine-protein kinase Lck (Homo sapiens, UniProt P06239); test: Inhibition of LCK-mediated inhibition of biotinylated substrate phosphorylation
[8] = test system: Mast cell; test: Inhibition of LPS-induced TNFalpha release in mast cells; format: functional, cell-based
[9] = test system: T-cell; test: Inhibition of IL2-induced PHA-stimulated healthy human T cells proliferation by [3H]thymidine assay; format: functional, cell-based
[10] = test system: Mast cell; test: Inhibition of hexosaminidase release in IgE-stimulated mast cells; format: functional, cell-based
[11] = test system: Mus musculus; test: Inhibition of ovalbumin-induced IgE production in mouse at 10 mg/kg, ip administered on day 1, 3 and 5 after 1 hr of ovalbumin challenge followed by additional dosing on day 2 and 4 measured on day 8 by ELISA; format: functional; set-up: scale not given: the % may be the effect or the level left; conditions: route intraperitoneal
[12] = test system: Mus musculus; test: Inhibition of ovalbumin-induced IgE production in mouse at 30 mg/kg, ip administered on day 1, 3 and 5 after 1 hr of ovalbumin challenge followed by additional dosing on day 2 and 4 measured on day 8 by ELISA; format: functional; set-up: scale not given: the % may be the effect or the level left; conditions: route intraperitoneal
[13] = test system: Mus musculus; test: Antiinflammatory activity against ovalbumin-induced asthma in BALB/c mouse model assessed as reduction of eosinophil count in broncheovular lavage fluid at 30 mg/kg, ip measured on day 32 after ovalbumin challenge; format: functional; set-up: scale not given: the % may be the effect or the level left; conditions: route intraperitoneal
[14] = test system: Mus musculus; test: Antiinflammatory activity against ovalbumin-induced asthma in BALB/c mouse model assessed as reduction in methacoline-induced airway constriction at 30 mg/kg, ip measured on day 32 after ovalbumin challenge; format: functional; set-up: scale not given: the % may be the effect or the level left; conditions: route intraperitoneal
[15] = test system: Mus musculus; test: Antiinflammatory activity against ovalbumin-induced asthma in BALB/c mouse model assessed as reduction of neutrophil count in broncheovular lavage fluid at 30 mg/kg, ip measured on day 32 after ovalbumin challenge; format: functional; set-up: scale not given: the % may be the effect or the level left; conditions: route intraperitoneal

Chain of MAP kinase-activated protein kinase 2 (P49137 whole entry): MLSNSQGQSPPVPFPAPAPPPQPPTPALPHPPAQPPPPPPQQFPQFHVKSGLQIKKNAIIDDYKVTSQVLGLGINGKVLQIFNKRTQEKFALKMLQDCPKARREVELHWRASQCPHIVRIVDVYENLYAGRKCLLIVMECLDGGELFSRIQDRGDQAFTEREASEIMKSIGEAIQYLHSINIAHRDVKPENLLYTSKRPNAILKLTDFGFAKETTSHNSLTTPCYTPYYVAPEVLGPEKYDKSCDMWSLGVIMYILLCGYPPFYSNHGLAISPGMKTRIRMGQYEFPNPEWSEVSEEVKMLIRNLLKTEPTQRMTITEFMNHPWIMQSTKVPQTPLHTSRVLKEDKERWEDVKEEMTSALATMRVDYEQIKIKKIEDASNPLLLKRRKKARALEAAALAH
Chain of Tyrosine-protein kinase Lck (P06239 whole entry): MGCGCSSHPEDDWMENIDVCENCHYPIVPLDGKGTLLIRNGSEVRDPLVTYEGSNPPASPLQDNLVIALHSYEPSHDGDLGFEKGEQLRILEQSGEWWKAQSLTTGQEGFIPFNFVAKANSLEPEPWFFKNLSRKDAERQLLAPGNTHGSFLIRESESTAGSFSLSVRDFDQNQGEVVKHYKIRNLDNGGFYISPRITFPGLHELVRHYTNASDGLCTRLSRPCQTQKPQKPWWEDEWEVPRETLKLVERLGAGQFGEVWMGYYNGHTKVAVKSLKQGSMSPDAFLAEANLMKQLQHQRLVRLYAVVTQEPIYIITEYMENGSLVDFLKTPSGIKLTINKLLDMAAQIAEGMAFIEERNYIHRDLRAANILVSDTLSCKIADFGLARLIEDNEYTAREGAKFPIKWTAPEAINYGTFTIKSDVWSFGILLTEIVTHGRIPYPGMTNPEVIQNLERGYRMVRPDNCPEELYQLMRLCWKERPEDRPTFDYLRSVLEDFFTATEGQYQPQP

Compound	IC50 [1] [nM]	IC50 [2] [nM]	IC50 [3] [nM]	further results
O=C1NCc2c1c1c3ccccc3n3c1c1c2c2ccccc2n1C/C=C\C3	> 10000	111	39	
CN(C)C1CCN(C(=O)[C@]2(O)Cn3c4ccccc4c4c5c(c6c7ccccc7n(c6c43)C[C@H]2O)C(=O)NC5=O)C1 (stereo not given in full)	1600	57	15	
O=C1NC(=O)c2c1c1c3ccccc3n3c1c1c2c2ccccc2n1CC(O)CC3 (stereo not given)	5670	160		
CC(=O)/C1=C/Cn2c3ccccc3c3c4c(c5c6ccccc6n(c5c32)C1)C(=O)NC4=O	> 10000	575	7	IC50 [4]: > 1000 nM; IC50 [5]: > 1000 nM; IC50 [6]: 540 nM; IC50 [7]: > 1000 nM
O=C1NCc2c1c1c3ccccc3n3c1c1c2c2ccccc2n1CC[C@@H](O)[C@@H](O)CC3 (relative stereo)	616	45	12	
O=C1NCc2c1c1c3ccccc3[nH]c1c1[nH]c3ccccc3c21 [STAUROSPORINONE]			61	
O=C1NC(=O)c2c1c1c3ccccc3n3c1c1c2c2ccccc2n1C[C@@H](O)[C@@H](O)CC3 (relative stereo)	> 10000	227	9	
C=CCn1c2ccccc2c2c3c(c4c5ccccc5n(CC=C)c4c21)C(=O)NC3			> 200	

The next lines start with results.

IC50 [1] [nM]	IC50 [2] [nM]	IC50 [3] [nM]	Compound	further results
> 10000	48	3	O=C1NC(=O)c2c1c1c3ccccc3n3c1c1c2c2ccccc2n1C[C@H](O)[C@H](O)C3	
> 10000	23	1	COC(=O)[C@]1(O)Cn2c3ccccc3c3c4c(c5c6ccccc6n(c5c32)C[C@H]1O)C(=O)NC4=O (relative stereo)	IC50 [4]: > 1000 nM; IC50 [5]: > 1000 nM; IC50 [6]: > 1000 nM; IC50 [7]: 300 nM
> 10000	2860		O=C1NC(=O)c2c1c1c3ccccc3n3c1c1c2c2ccccc2n1CC(O)CCC3 (stereo not given)	
> 10000	222	9	O=C1NC(=O)c2c1c1c3ccccc3n3c1c1c2c2ccccc2n1C[C@@](O)(C(=O)O)[C@H](O)C3 (relative stereo)	
10000	98	6	O=C1NCc2c1c1c3ccccc3n3c1c1c2c2ccccc2n1C[C@@H](O)[C@@H](O)C3 (relative stereo)	IC50 [8]: 18 nM; IC50 [4]: 300 nM; IC50 [5]: 200 nM; IC50 [6]: > 1000 nM; IC50 [7]: > 1000 nM; IC50 [9]: 100 nM; IC50 [10]: 55 nM; Activity [11]: 15%; Activity [12]: 70%; Activity [13]: 54%; Activity [14]: 90%; Activity [15]: 54%
10000	432		O=C1NCc2c1c1c3ccccc3n3c1c1c2c2ccccc2n1CC/C=C\CC3	
